How the values were obtained:
[1] = test system: NCI-H23 lung adenocarcinoma (LUAD) cells; assay: Spheroid growth inhibition (SGI) assay, NCI-H23; assay type: cell-based; settings: NCI-H23 spheroids; 30 nM palbociclib, 300 nM PF-07220060, 300 nM PF-07104091; 14 days
Description: NCI-H1792 and NCI-H23 lung adenocarcinoma (LUAD) cells lines were obtained from ATCC and maintained in RPMI 1640 medium supplemented with 10% fetal bovine serum and penicillin-streptomycin as per ATCC guidelines. Cells were maintained in humidified incubator at 37° C. with 5% CO2.
Spheroid assays were performed in 96 well ultralow attachment plates (ULA-96U) from Nexcelom & Thermo Fisher Scientific. […] To aid spheroid formation, dispensed cells were centrifuged at 220×g for 6 minutes in the ultralow attachment plates and allowed to form compact spheroids for 4 days prior to the initiation of treatment. […] DMSO (0.01%) was used as the vehicle control. DMSO and all compounds were diluted in cell medium. Medium and compounds were replenished twice per week, with 3 and 4-day intervals. Replenishment was executed by aspirating 150 μL of medium per well without disturbing the spheroid and then adding the same volume of premixed medium/compound solution to spheroids. Spheroid diameter was quantified immediately following each medium change twice a week (on every 3rd or 4th day) throughout the duration of the assay.
Average diameters of tumor spheroids were plotted in GraphPad Prism 8 and the AUC calculated. AUC baseline was determined by the average tumor spheroid diameter at Day 0 in the vehicle (DMSO) controls. Spheroid growth inhibition, or SGI, was calculated as follows: SGI=(1−AUC treatment/AUC DMSO)×100%. SGI for all treatment arms was derived at the timepoint when the vehicle (DMSO) treated spheroids reach their maximal diameter (usually close to 1 mm but this can differ among cell lines); this corresponds to the last time point taken for the vehicle (DMSO) treated spheroids. SEM was calculated based on n=10 to 12 wells per test group.
Growth of lung adenocarcinoma multicellular tumor spheroids (MCTS) was monitored over time to assess: (i) amplitude of response (SGI) and (ii) duration of response to the CDK4 inhibitor PF-07220060 as a single agent, and in combination with the CDK2 inhibitor PF-07104091.

[2] = test system: MCF7 breast cancer cell line; assay: Cell proliferation combination assay (Loewe Volume, CI), MCF7; assay type: cell-based, Human; settings: MCF7 cells; for Best CI: Best CI Level 70
Description: (§1) The combination effects of PF-07104091 and PF-07220060 were evaluated in a cell proliferation assay with MCF7 and T47D BC cell lines.
(§2) Drug combinations were analyzed using the Dose Equivalence Principle, and the Loewe Volume score. When modeling synergy using the Dose Equivalence Principle, the Loewe Volume score for the combination compounds should be greater than the compound self-cross controls, and the Combination Index (C) score for the combination compounds should be less than compound self-cross controls. […] The isobolograms set to an anti-proliferation threshold at 70% confirmed a synergistic response.

[3] = test system: T47D breast cancer cell line; assay: Cell proliferation combination assay (Loewe Volume, CI), T47D; assay type: cell-based, Human; settings: T-47D cells; for Best CI: Best CI Level 70
Description: as §1, §2

[4] = test system: T47D breast cancer model; assay: In vivo efficacy, HR+/HER2− T47D breast cancer model (Example 3); parameters: species or system NSG mice; settings: Day 41, PO BID: PF-07104091 150 mpk, PF-07220060 60 mpk, palbociclib 10 mpk
Description: Female NSG mice (Jackson Lab) were subcutaneously implanted with fragment (27 mm^3 to 64 mm^3 size) into the dorsal region. All mice for T47D, HCC1428 and ST941 PBR studies were supplemented with 8.5 μg/mL estradiol water (β-Estradiol Sigma-Aldrich, cat #E2758-5G) and gave ad libitum till end of study. For the in vivo efficacy studies, tumor volume and body weights were measured twice a week. Tumor volume was calculated using the [(Length×Width×Width)/2)] formula. TGI was calculated as 100*(1−ΔT/ΔC). The ΔC (ΔT) was obtained by subtracting the mean tumor burden in the vehicle (treated) group on the first day of treatment (Day 0) from the mean tumor burden in vehicle (treated) group on the assessment day. Statistical analysis was performed using ANCOVA when the mean tumor volume in vehicle treated mice reached tumor cutoff size.
The T47D model was established by implanting passage 3 tumor fragments into recipient mice. To establish the T47D donor mice, tumor cells (5×10^6 cell/mouse with 50% Cultrex® Basement Membrane Matrix) were subcutaneously implanted in female NSG mice. Once reaching a range of 700 to 800 mm^3, donor tumors were subsequently transplanted into secondary recipient mice for a study expansion. […] PF-07104091 (lot 016), PF-07220060 (lot 019) and PD-0332991 (lot GR08498) were administered (PO.) BID (7 hr apart). All mice received treatment continuously until Day 41. TGI was assessed on Day 41 post first dose.

[5] = test system: NCI-2291; assay: Combinatorial activity in LUAD cell line NCI-2291; assay type: cell-based; settings: NCI-2291, KRAS G12C/F/V; single agent; read-out: (nM) s.a.
Description: (§3) Combinatorial activity of PF-07104091 and PF-07220060 was assessed in LUADs as single agents (s.a.) or in combination.

[6] = test system: ABC1; assay: Combinatorial activity in LUAD cell line ABC1; assay type: cell-based; settings: Homo sapiens, ABC-1; ABC1, WT; single agent; read-out: (nM) s.a.
Description: as §3

[7] = test system: HCC2935; assay: Combinatorial activity in LUAD cell line HCC2935; assay type: cell-based; settings: Homo sapiens; HCC2935, WT; single agent; read-out: (nM) s.a.
Description: as §3

[8] = test system: NCIH2023; assay: Combinatorial activity in LUAD cell line NCIH2023; assay type: cell-based; settings: NCI-H2023; NCIH2023, WT; single agent; read-out: (nM) s.a.
Description: as §3

[9] = test system: NCIH2126; assay: Combinatorial activity in LUAD cell line NCIH2126; assay type: cell-based; settings: Homo sapiens, NCI-H2126; NCIH2126, WT; single agent; read-out: (nM) s.a.
Description: as §3

[10] = test system: NCIH2228 (RB mut); assay: Combinatorial activity in LUAD cell line NCIH2228; assay type: cell-based; settings: Homo sapiens, NCI-H2228, WT, single agent, read-out: (nM) s.a.
Description: as §3

In the case of COCc1cc(C(=O)Nc2cc([C@H]3CC[C@@H](OC(=O)NC(C)C)C3)[nH]n2)n(C)n1 [PF-07104091, (1R,3S)-3-[3-({[3-(methoxymethyl)-1-methyl-1H-pyrazol-5-yl]carbonyl}amino)-1H-pyrazol-5-yl]cyclopentyl propan-2-ylcarbamate], the “SGI (%)” value [1] is reported as 9%, the “Loewe Volume” value [2] is reported as −0.08 and the “Best CI” value [2] is reported as 1.04. For the same compound, the “Loewe Volume” value [3] was 0.01, the “Best CI” value [3] was 0.95 and the TGI % [4] was 82%. The IC50 [5] was ~1200 nM, the IC50 [6] was 716 nM and the IC50 [7] was 280 nM. The IC50 [8] was > 450 nM, the IC50 [9] was 372 nM and the IC50 [10] was ~1000 nM.

For CC(C)n1c(C(C)(C)O)nc2c(F)cc(-c3nc(N[C@@H]4CCOC[C@H]4O)ncc3Cl)cc21 [PF-07220060, 1,5-anhydro-3-({5-chloro-4-[4-fluoro-2-(2-hydroxypropan-2-yl)-1-(propan-2-yl)-1H-benzimidazol-6-yl]pyrimidin-2-yl}amino)-2,3-dideoxy-D-threo-pentitol], the “SGI (%)” value [1] was 35%, the “Loewe Volume” value [2] was −0.02 and the “Best CI” value [2] was 1.06. For the same compound, the “Loewe Volume” value [3] was 0.00, the “Best CI” value [3] was 0.97 and the TGI % [4] was 73%. For the same compound, the IC50 [5] was 138 nM, the IC50 [6] was 408 nM and the IC50 [7] was 141 nM. For the same compound, the IC50 [8] was 310 nM, the IC50 [9] was 255 nM and the IC50 [10] was 839 nM.

From patent publication US20250041277A1, “METHODS AND DOSING REGIMENS COMPRISING A CDK2 INHIBITOR AND A CDK4 INHIBITOR FOR TREATING CANCER” (PFIZER INC., priority 2021, published 2025)
